# Molecular target: T1, GABA-A receptor; alpha-1/beta-2/gamma-2 (Homo sapiens, UniProt P14867+P18507+P47870)
# T1 sequence (P14867 whole entry): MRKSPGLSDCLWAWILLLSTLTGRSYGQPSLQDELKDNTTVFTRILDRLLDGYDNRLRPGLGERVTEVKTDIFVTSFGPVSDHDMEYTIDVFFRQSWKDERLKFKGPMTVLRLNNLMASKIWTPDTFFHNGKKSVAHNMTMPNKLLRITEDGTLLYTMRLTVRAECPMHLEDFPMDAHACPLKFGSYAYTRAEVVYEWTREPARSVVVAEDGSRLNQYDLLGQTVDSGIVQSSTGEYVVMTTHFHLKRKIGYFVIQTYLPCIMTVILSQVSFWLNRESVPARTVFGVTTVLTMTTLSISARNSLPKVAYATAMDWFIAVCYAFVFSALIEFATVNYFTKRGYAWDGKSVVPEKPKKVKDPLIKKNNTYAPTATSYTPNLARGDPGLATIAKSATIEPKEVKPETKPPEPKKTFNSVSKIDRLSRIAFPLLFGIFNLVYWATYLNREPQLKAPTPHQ
# T1 sequence (P47870 whole entry): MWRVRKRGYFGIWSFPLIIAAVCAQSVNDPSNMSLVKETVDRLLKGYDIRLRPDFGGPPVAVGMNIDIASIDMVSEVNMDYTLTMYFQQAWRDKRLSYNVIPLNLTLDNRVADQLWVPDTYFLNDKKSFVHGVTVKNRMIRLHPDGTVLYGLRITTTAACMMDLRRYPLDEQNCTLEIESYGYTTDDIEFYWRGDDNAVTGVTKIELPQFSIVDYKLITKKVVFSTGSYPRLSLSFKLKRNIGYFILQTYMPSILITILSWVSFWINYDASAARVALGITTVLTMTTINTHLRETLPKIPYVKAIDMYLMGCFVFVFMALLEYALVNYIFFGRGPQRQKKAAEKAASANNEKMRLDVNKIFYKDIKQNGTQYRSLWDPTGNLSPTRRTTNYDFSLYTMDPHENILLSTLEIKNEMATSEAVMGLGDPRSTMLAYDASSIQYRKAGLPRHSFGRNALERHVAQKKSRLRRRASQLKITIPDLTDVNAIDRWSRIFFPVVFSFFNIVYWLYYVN
# T1 sequence (P18507 whole entry): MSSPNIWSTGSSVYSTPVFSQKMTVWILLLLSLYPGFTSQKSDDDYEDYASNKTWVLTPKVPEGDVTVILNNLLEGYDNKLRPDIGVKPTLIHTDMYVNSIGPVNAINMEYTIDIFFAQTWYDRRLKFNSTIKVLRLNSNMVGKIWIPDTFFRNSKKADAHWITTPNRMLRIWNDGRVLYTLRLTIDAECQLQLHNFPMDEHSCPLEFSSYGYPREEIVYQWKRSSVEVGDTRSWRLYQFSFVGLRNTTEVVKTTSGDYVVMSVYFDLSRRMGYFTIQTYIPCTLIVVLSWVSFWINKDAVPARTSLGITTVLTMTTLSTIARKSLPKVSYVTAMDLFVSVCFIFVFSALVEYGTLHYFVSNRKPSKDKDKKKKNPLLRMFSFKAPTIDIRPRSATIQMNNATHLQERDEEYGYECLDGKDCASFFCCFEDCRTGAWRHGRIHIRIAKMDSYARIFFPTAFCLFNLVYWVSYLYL
# Experiment: Antagonist activity at human recombinant GABA A receptor alpha1beta2gamma2S expressed in HEK293 cells assessed as inhibition of GABA-induced current by patch clamp electrophysiology
# Format: functional, cell-based
row,SMILES,IC50 [nM]
1,N=c1ccc(-c2ccc(OCc3ccccc3)cc2)nn1CCCC(=O)O,11
2,COc1cccc(COc2ccc(-c3ccc(=N)n(CCCC(=O)O)n3)cc2)c1,7
3,N=c1ccc(-c2ccc(OCc3cccc([N+](=O)[O-])c3)cc2)nn1CCCC(=O)O,3
4,C#CCOc1ccc(-c2ccc(=N)n(CCCC(=O)O)n2)cc1,40
5,COc1ccc(-c2ccc(=N)n(CCCC(=O)O)n2)cc1 [GABAZINE],349

# Reference: ChEMBL document CHEMBL1795203, “Synthesis and evaluation of highly potent GABA(A) receptor antagonists based on gabazine (SR-95531)” (Bioorg Med Chem Lett, 2011)
